Results on eleven compounds are retold here after US20250387388A1, “COMPOUND AS TRK INHIBITOR AND/OR RET INHIBITOR AND USE THEREOF” (Medinno Pharmaceutical Technology (Zhuhai) Co., Ltd., priority 2022, published 2025).

Read-outs that look alike come from different tables or passages of the source.

For assay [1], the target named is TRKA (Homo sapiens (Human), UniProt P04629). Briefly: Inhibitory activity on TRKA (ADP-Glo Kinase Assay). On the technique in general: In ADP-Glo the light output rises with the ADP produced.
Assay [2] concerns the target TRKB (Homo sapiens (Human), UniProt Q16620). Briefly: Inhibitory activity on TRKB (ADP-Glo Kinase Assay).
Assay [3] has as its target TRKC (Homo sapiens (Human), UniProt Q16288). Briefly: Inhibitory activity on TRKC (ADP-Glo Kinase Assay).
Assay [4] relates to acne model in rabbits. Briefly: Acne model in rabbits (coal tar + Propionibacterium acnes). Particulars: 1% Clindamycin gel 0.5 g/kg once per day. Format: in vivo, New Zealand white rabbits. On the procedure: Modeling: Rabbits were acclimated for 7 days. On the right inner ear canal exit of the rabbits, a 2 cm×2 cm area was treated with 2% coal tar solution once a day, 0.5-1 mL each time, for 26 consecutive days. […] On the 8th day, Propionibacterium acnes was injected intradermally at 3-4 sites on the rabbit ears, 50 μl per rabbit, injected every other day for a total of 5 times. Treatment was started randomly on the 9th day after the last injection.
Rabbits were treated according to their groups. The blank group received no treatment. […] The model group received an equal amount of vehicle treatment, with the same application method and duration as the test drug groups.
Twenty-four hours after the last administration, a 2.8 cm punch was used to prepare ear samples at the application site, and their weight was measured. The ears from the modeling site were fixed with 4% paraformaldehyde, and consecutive sections (3 slices) were taken from the same location for HE staining and histopathological analysis. At the same time, the area of 3 hair follicles and the diameter of 3 sebaceous glands were measured to calculate the average values. Blood was drawn from the heart and centrifuged to obtain serum, and the levels of interleukin-1α (IL-1α), interleukin-6 (IL-6), and dihydrotestosterone (DHT) in serum were determined according to the ELISA kit instructions.
Tissue samples from animal ears were excised, fixed in 4% paraformaldehyde, dehydrated, embedded in paraffin, and sectioned and HE stained for observation of histopathological morphology changes. The tissue samples were fixed in 4% paraformaldehyde at normal temperature and the taken ears tissue was rinsed with running water for several hours, dehydrated through a series of ethanol solutions (70%, 80%, 90%), and then treated with a mixture of pure alcohol and xylene for 15 minutes, followed by xylene I for 15 minutes and xylene II for 15 minutes (until transparent). The tissue was then placed in a mixture of xylene and paraffin at a volume ratio of 1:1 for 15 minutes, followed by immersion with paraffin I and paraffin II each for 50-60 minutes. The tissue was embedded in paraffin and sectioned, and the sections were baked, dewaxed and hydrated in distilled water. The resulting sections were then stained in hematoxylin solution for 3 minutes, differentiated in a hydrochloric acid alcohol solution for 15 seconds, slightly washed, blued in a return blue solution for 15 seconds, rinsed with running water, stained with eosin for 3 minutes, rinsed with running water, dehydrated, cleared, and mounted for microscopic examination.
A double-antibody one-step sandwich Enzyme-linked Immunosorbent Assay (ELISA) ket was used. A capture antibody for the mouse target indicators was pre-coated onto microplate wells, to which samples, standards, and HRP-labeled detection antibodies were added sequentially, followed by incubation and thorough washing. TMB substrate was added for color development, which turned into blue in the presence of peroxidase and then into yellow after acidification. The depth of color was positively correlated with the concentration of the target in the samples. The absorbance (OD450 value) was measured at a wavelength of 450 nm using the microplate reader, and the sample concentration was calculated.

Assay [5] relates to ovalbumin-induced asthma model in mice. Briefly: Ovalbumin-induced asthma model in mice. Format: in vivo, Balb/c mice. Particulars: vs. vehicle (model) group; nasal administration BID 5 days: MDI-1228 3 mg/kg, MDI-1288 3 mg/kg, MDI-1233 1, 3, 10 mg/kg; dexamethasone 1 mg/kg gavage QD. On the procedure: After 7 days of acclimatization, animals were randomly grouped based on their body weight. The experiment was divided into 8 groups, with 8 mice in each group, as detailed in the table below.
• Preparation of Immunogen: Weigh an appropriate amount of OVA, to which an appropriate amount of PBS was added, to achieve a final concentration of 0.1 mg/ml. Then, an equal volume of aluminum adjuvant was added, and the resulting mixture was mixed well, and stored at 4° C., which was prepared before use. • Preparation of Sensitizer (5% OVA): Weigh an appropriate amount of OVA, to which an appropriate amount of PBS was added, to achieve a final concentration of 5%. The resulting mixture was mixed well, and store it at 4° C. for later use, which was prepared before use. • Preparation of Vehicle: Add 200 μl of Tween 80 to 100 ml of saline, and mix it well. […] Mix it well, and store it at 4° C. for later use. […] Mix it well, and store it at 4° C. for later use. […] Mix it well, and store it at 4° C. for later use. The solution was prepared once every three days.
• Immunization: On days 0, 7, 14, and 21, 200 μl of PBS was injected intraperitoneally for the first group, and 200 μl of (10 μg) OVA/aluminum adjuvant emulsion was injected intraperitoneally for groups 2-8. • Sensitization: From days 28 to 32, the first group of animals was exposed to nebulized PBS in a nebulization box for 20 minutes, and the groups 2-8 were exposed to nebulized 5% OVA in a nebulization box for 20 minutes. And then, they were removed. The sensitization was conducted at 12:30 PM daily. • Administration: The medicine was administrated twice a day at 9 AM and 5 PM via nasal drops. Dexamethasone (Dex) was administered by gavage once a day at 9 AM.
Serum IgE: Blood was collected from the orbits of animals after carbon dioxide euthanasia, and plasma was separated and stored at −40 degrees for plasma IgE detection.
Bronchoalveolar Lavage Fluid (BALF) Cell Count: An appropriate amount of foetal bovine serum was weighted and dissolved in PBS to a final concentration of 1%. After orbital blood collection, the trachea was exposed, and a 1 ml syringe needle was replaced with a mouse gavage needle. 0.8 ml of the lavage fluid was aspirated from the syringe and the lungs were lavaged three times. The lavage fluids were collected, and centrifuged at 1000 rpm for 10 minutes, and the supernatant was collected and stored at −40 degrees Celsius. Cells were resuspended with 1 ml of PBS and counted. 100 ul of centrifuged smear was taken and stained with Diff quick and the number of eosinophils, basophils, lymphocytes and macrophages were recorded.
Bronchoalveolar Lavage Fluid IL-5: Bronchoalveolar lavage fluid was collected to detect IL-5.
Pathological scoring criteria were: • A) 0 points: No lymphocyte infiltration; • B) 1 point: Trace lymphocyte infiltration; • C) 2 points: Mild lymphocyte infiltration; • D) 3 points: Moderate lymphocyte infiltration; • E) 4 points: Severe lymphocyte infiltration; • After scoring, the results were calculated and analyzed.

Assay [6] has as its system imiquimod-induced psoriasis model. Briefly: Imiquimod-induced psoriasis model in mice. The conditions noted are these: for Clinical Score (mean ± standard error) / Skin Thickness Score (mean ± standard error): Calcitriol 75 mg/mice topical QD.

Sequence of TRKA (P04629 33-796 limits assumed): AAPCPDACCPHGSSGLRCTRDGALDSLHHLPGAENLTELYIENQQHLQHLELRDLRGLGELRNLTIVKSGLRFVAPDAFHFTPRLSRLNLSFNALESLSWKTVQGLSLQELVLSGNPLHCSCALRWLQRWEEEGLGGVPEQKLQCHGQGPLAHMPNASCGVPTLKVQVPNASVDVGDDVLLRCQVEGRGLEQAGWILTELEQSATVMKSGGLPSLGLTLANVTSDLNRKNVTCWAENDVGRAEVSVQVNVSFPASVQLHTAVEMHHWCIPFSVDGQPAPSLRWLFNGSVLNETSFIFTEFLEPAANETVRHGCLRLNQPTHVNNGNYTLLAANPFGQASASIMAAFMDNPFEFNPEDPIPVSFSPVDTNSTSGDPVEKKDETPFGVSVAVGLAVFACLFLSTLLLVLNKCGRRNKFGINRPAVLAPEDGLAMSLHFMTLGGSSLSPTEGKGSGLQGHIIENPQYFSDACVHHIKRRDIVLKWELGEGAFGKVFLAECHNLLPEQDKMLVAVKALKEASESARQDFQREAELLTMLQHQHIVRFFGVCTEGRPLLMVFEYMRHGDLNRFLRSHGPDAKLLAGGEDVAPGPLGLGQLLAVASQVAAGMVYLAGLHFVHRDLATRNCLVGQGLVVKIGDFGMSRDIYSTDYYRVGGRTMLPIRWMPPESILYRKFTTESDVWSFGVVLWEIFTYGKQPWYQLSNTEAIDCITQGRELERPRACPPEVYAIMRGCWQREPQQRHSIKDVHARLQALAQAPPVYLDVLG
Sequence of TRKC (Q16288 32-839): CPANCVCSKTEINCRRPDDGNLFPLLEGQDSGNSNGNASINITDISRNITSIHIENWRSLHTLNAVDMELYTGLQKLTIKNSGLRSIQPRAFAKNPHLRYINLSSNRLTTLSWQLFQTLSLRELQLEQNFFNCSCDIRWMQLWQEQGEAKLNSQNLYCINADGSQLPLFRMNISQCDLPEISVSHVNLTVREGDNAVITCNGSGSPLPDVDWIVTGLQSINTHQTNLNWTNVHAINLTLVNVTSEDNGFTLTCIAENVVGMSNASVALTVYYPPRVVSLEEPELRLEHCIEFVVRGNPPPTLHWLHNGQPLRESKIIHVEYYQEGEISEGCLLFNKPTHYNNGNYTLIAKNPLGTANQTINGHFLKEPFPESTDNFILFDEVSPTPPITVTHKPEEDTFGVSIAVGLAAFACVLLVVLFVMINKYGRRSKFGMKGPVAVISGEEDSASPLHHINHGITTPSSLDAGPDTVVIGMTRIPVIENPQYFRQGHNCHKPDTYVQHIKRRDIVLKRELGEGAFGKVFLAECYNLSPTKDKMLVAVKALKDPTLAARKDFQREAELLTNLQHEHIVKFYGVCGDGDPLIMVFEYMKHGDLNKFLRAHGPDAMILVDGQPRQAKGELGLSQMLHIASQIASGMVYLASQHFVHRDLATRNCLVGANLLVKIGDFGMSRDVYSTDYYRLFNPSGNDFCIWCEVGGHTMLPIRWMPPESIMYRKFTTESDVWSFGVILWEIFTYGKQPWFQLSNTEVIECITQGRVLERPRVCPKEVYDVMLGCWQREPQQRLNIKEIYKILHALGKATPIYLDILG
Sequence of TRKB (Q16620 32-822): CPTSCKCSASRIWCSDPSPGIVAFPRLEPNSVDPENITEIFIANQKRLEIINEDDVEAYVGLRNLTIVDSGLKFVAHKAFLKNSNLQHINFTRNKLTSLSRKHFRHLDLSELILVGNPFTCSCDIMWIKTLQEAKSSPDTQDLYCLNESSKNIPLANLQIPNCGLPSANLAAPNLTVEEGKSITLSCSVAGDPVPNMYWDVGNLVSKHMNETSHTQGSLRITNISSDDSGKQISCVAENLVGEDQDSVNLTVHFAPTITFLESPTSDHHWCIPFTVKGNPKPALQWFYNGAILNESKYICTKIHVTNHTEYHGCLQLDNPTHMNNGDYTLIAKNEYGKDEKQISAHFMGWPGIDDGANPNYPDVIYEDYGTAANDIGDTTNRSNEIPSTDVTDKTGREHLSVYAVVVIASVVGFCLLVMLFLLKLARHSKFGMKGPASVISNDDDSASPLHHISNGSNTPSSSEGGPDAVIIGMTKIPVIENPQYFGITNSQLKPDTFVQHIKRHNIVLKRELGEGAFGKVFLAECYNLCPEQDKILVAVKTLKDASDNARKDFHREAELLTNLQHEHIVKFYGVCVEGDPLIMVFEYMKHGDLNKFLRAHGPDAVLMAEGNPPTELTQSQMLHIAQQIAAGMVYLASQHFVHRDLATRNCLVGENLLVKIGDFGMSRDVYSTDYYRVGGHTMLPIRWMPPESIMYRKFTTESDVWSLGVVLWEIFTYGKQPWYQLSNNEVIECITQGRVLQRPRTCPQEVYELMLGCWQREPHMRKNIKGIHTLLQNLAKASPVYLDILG

For orientation: IC50 means the midpoint of a concentration-inhibition curve. Take `CCc1cc(O)c(F)cc1-c1ccc2c(-c3nc4c([nH]3)CN(C(=O)N3CCOCC3)C4)n[nH]c2c1` [MDI-234, (2-(6-(2-ethyl-5-fluoro-4-hydroxyphenyl)-1H-indazol-3-yl)-4,6-dihydropyrrolo[3,4-d]imidazol-5-(1H)-yl)(morpholino)ketone]: the IC50 in assay [1] was found to be 1.07 nM; in assay [2] it was 1.27 nM; in assay [3], 0.65 nM.

On to `CCOC(=O)N1Cc2nc(-c3n[nH]c4cc(-c5cc(F)c(O)cc5CC)ccc34)[nH]c2C1` [MDI-253, Ethyl 2-(6-(2-ethyl-5-fluoro-4-hydroxyphenyl)-1H-indazol-3-yl)-4,6-dihydropyrrolo[3,4-d]imidazol-5(1H)-carboxylate], for which the IC50 in assay [1] (read-out: TRKA IC50, ATP 5 μM) turned out to be 11.4 nM; in assay [2] (read-out: TRKB IC50, ATP 5 μM), 98.8 nM; in assay [3] (read-out: TRKC IC50, ATP 5 μM), 13.1 nM.

Turning to `CCc1cc(O)c(F)cc1-c1ccc2c(-c3nc4c([nH]3)CN(C(=O)N3CCN(CC)CC3)C4)n[nH]c2c1` [MDI-236, (2-(6-(2-ethyl-5-fluoro-4-hydroxyphenyl)-1H-indazol-3-yl)-4,6-dihydropyrrolo[3,4-d]imidazol-5-(1H)-yl)(4-ethylpiperazin-1-yl)ketone], the IC50 in assay [1] came to 0.23 nM; in assay [2] it was 1.06 nM; in assay [3], 0.2 nM.

Take `CCc1cc(O)c(F)cc1-c1ccc2c(-c3nc4c([nH]3)CN(C(=O)NCCO)C4)n[nH]c2c1` [MDI-248, 2-(6-(2-ethyl-5-fluoro-4-hydroxyphenyl)-1H-indazol-3-yl)-N-(2-hydroxylethyl)-4,6-dihydropyrrolo[3,4-d]imidazol-5(1H)-carboxamide]: the IC50 in assay [1] (read-out: TRKA IC50, ATP 5 μM) came to 12 nM; in assay [2] (read-out: TRKB IC50, ATP 5 μM), 3.58 nM; in assay [3] (read-out: TRKC IC50, ATP 5 μM), 3.77 nM.

For the compound `CCC[C@@H]1C[C@@H](C(=O)N[C@@H]([C@H]2O[C@H](SC)[C@H](O)[C@@H](O)[C@H]2O)[C@H](C)Cl)N(C)C1` [clindamycin, reference compound], in assay [4], the Hair follicle area entry is on record as “not improved”. Moreover, the Rabbit ear weight entry in assay [4] (2 weeks) is “did not reduce ear weight”.

For `CCc1cc(O)c(F)cc1-c1ccc2c(-c3nc4c([nH]3)CN(S(=O)(=O)C3CC3)C4)n[nH]c2c1` [MDI-218, 4-(3-(5-(cyclopropanesulfonyl)-1,4,5,6-tetrahydropyrrolo[3,4-d]imidazol-2-yl)-1H-indazol-6-yl)-5-ethyl-2-fluorophenol], the IC50 in assay [1] (read-out: TRKA IC50, ATP 5 μM) was found to be 9.97 nM; in assay [2] (read-out: TRKB IC50, ATP 5 μM) it was 32.3 nM; in assay [3] (read-out: TRKC IC50, ATP 5 μM) it was 5.1 nM.

For the compound `CCc1cc(O)c(F)cc1-c1ccc2c(-c3nc4c([nH]3)CN(C(=O)N3CCCC3)C4)n[nH]c2c1` [MDI-231, (2-(6-(2-ethyl-5-fluoro-4-hydroxyphenyl)-1H-indazol-3-yl)-4,6-dihydropyrrolo[3,4-d]imidazol-5-(1H)-yl)(pyrrolidin-1-yl)ketone], the IC50 was determined as 2.82 nM in assay [1], 5.86 nM in assay [2] and 1.49 nM in assay [3].

For `C[C@@H]1C[C@H]2[C@@H]3CCC4=CC(=O)C=C[C@]4(C)[C@@]3(F)[C@@H](O)C[C@]2(C)[C@@]1(O)C(=O)CO` [dexamethasone, reference compound], in assay [5], the “Bronchoalveolar lavage fluid IL-5 expression level” value was “significantly reduced the expression of IL-5”, the “Inflammatory cell count in bronchoalveolar lavage fluid” value was “significantly reduced the Inflammatory Cell Count”, the “Lung tissue inflammatory cell infiltration (HE pathology)” value is reported as “significantly reduced the lung tissue inflammatory cell infiltration” and the “Serum IgE expression level” value is given as “significantly reduced the expression of IgE”.

On to `CCc1cc(O)c(F)cc1-c1ccc2c(-c3nc4c([nH]3)CN(C(=O)N3CCCCC3)C4)n[nH]c2c1` [MDI-233], for which the results for the IC50 in assay [1], in assay [2] and in assay [3] were 9.01 nM, 30.4 nM and 6.32 nM, respectively.

Turning to `CCc1cc(O)c(F)cc1-c1ccc2c(-c3nc4c([nH]3)CN(C(=O)N(C)C)C4)n[nH]c2c1` [MDI-257, 2-(6-(2-ethyl-5-fluoro-4-hydroxyphenyl)-1H-indazol-3-yl)-N,N-dimethyl-4,6-dihydropyrrolo[3,4-d]imidazol-5(1H)-carboxamide], the IC50 in assay [2] (read-out: TRKB IC50, ATP 5 μM) is 2.93 nM; in assay [3] (read-out: TRKC IC50, ATP 5 μM), 0.72 nM.

Regarding `C=C1/C(=C\C=C2/CCC[C@]3(C)[C@@H]([C@H](C)CCCC(C)(C)O)CC[C@@H]23)C[C@@H](O)C[C@@H]1O` [Calcitriol], the “Clinical Score (mean ± standard error)” value is on record as 0.0 ± 0.00 in assay [6] (Day 0); 0.2 ± 0.13 in assay [6] (Day 1); 1.2 ± 0.13 in assay [6] (Day 2); 3.1 ± 0.28 in assay [6] (Day 3); 4.3 ± 0.26 in assay [6] (Day 4); 2.9 ± 0.18 in assay [6] (Day 5). In addition, the figures for the “Clinical Score (mean ± standard error)” value in assay [6] (Day 6) and in assay [6] (Day 7) were 2.5 ± 0.17 and 2.0 ± 0.00, respectively. Besides, the “Skin Thickness Score (mean ± standard error)” value in assay [6] (Day 0) stood at 0.0 ± 0.00; in assay [6] (Day 1), 0.0 ± 0.00; in assay [6] (Day 2), 0.0 ± 0.00; in assay [6] (Day 3), 0.7 ± 0.15; in assay [6] (Day 4) it was 1.2 ± 0.20; in assay [6] (Day 5), 0.8 ± 0.20. In addition, the “Skin Thickness Score (mean ± standard error)” value in assay [6] (Day 6) was 0.5 ± 0.17; in assay [6] (Day 7), 0.0 ± 0.00. For the same compound, the “Inhibition percentage of skin thickness score AUC relative to vehicle control group” value in assay [6] (calcitriol 75 mg/mice QD) is 64.2%. Moreover, the Skin histopathology entry in assay [6] (calcitriol 75 mg/mice QD) is on record as “a trend of mitigation”.
